One assay addresses hOx2R (Homo sapiens (Human), UniProt O43614). Description: Calcium accumulation in cells (FLIPR), hOx2R. Particulars: for Ki: inhibition of orexin A induced calcium accumulation, Cheng and Prusoff correction; for inhibition at 10 µM: measured at a concentration of 10 μM of compound. Type of assay: cell-based. As to the method:
(§1) Calcium Accumulation in Cells (FLIPR):
(§2) Cells expressing human orexin 1 or human orexin 2 receptors, were seeded at 8,000 cells/well in 384 well black-walled clear bottom, poly-D-lysine coated plates. After 24 h, the medium was removed and cells were washed once with phosphate buffered saline and serum-deprived overnight in assay buffer (130 mM NaCl, 5.4 mM KCl, 1.8 mM CaCl2, 0.8 mM MgSO4, 0.9 mM NaH2PO4, 25 mM glucose, 20 mM HEPES, pH 7.4) containing bovine serum albumin (1% w/v).
(§3) On the day of the experiment, the cells seeded in black plates were treated with assay buffer containing the Ca^2+ sensitive fluorescent dye Fluo-4-AM (2 μM), and probenecid (0.1 mM). After 1 h plates were washed twice with, and resuspended in, assay buffer containing probenecid (0.1 mM) using a multi plate washer. […] Fluorescence measurements were then continued every 1 S for 120 S followed by every 4 S for 240 S.
(§4) The measurements were typically made in two sequences:
(§5) Compounds of formula I were tested usually in a concentration range from 10^−9 M to 10^−5 M.
(§6) In the second round, performed one hour later (to allow for equilibration), Orexin A was tested either in the absence (calibration curves, Orexin A agonist controls) or in the presence of compounds of formula I to determine antagonism.

The target of another assay is hOx1R (Homo sapiens (Human), UniProt O43613). Description: Calcium accumulation in cells (FLIPR), hOx1R. Type of assay: cell-based. To be noted: for Ki: inhibition of orexin A induced calcium accumulation, Cheng and Prusoff correction; for inhibition at 10 µM: measured at a concentration of 10 μM of compound. As to the method: as §1, §2, §3, §4, §5, §6
Sequence of hOx1R (O43613 whole entry): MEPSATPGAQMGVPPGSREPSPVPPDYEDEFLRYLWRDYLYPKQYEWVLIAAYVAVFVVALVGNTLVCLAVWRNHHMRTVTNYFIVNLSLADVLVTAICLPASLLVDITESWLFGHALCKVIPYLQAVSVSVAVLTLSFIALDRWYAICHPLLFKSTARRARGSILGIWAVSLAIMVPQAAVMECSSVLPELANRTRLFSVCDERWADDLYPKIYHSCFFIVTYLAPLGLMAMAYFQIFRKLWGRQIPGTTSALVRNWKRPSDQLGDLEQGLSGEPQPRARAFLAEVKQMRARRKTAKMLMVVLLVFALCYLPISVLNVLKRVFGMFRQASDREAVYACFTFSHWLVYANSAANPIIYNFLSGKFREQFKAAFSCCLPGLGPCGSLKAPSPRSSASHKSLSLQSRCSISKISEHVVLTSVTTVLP

Sequence of hOx2R (O43614 whole entry): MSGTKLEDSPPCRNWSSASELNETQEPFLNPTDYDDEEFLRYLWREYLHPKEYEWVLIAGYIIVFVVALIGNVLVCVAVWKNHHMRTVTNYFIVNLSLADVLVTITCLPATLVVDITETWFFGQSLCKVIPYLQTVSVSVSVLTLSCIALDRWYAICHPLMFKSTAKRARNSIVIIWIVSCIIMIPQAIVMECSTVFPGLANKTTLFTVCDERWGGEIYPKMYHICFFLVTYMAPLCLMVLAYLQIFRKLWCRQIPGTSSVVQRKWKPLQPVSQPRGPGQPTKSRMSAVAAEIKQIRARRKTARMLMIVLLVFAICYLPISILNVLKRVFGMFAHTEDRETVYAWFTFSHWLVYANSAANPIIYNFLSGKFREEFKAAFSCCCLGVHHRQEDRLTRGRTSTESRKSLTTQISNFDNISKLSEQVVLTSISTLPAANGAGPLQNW

The term Ki denotes a dissociation constant, usually derived from enzyme kinetics or from competition with a known ligand. Turning to `O=C1CCCC2(CCN(c3cnc4ccccc4n3)CC2)N1Cc1ccccc1` [Example 134, 1-benzyl-9-(quinoxalin-2-yl)-1,9-diazaspiro[5.5]undecan-2-one], the results for the inhibition constant (Ki) on hOx2R and at hOx1R were 161 nM and 1440 nM, respectively.
For `Cc1cccc(-c2sc(C)nc2CN2CCCC3(CCN(c4cnc5ccccc5n4)CC3)C2=O)c1` [Example 69, 2-((2-methyl-5-m-tolylthiazol-4-yl)methyl)-9-(quinoxalin-2-yl)-2,9-diazaspiro[5.5]undecan-1-one] the same measures were 163 nM and 1110 nM.
The term inhibition denotes the relative decrease from the control value, in per cent. Consider `Cc1nn(-c2ccccc2)nc1CN1CCCC2(CCN(c3cnc4ccccc4n3)CC2)C1=O` [Example 175, 2-((5-methyl-2-phenyl-2H-1,2,3-triazol-4-yl)methyl)-9-(quinoxalin-2-yl)-2,9-diazaspiro[5.5]undecan-1-one], for which the results for the inhibition at 10 µM on hOx2R and at hOx1R were 12% and less than 10%, respectively.
Take `O=C1N(Cc2ccc(-n3cncn3)cc2)CCCC12CCN(c1cnc3ccccc3n1)CC2` [Example 81, 2-(4-(1H-1,2,4-triazol-1-yl)benzyl)-9-(quinoxalin-2-yl)-2,9-diazaspiro[5.5]undecan-1-one]: the Ki on hOx2R was found to be 1580 nM. For the same molecule, at hOx1R, the inhibition at 10 µM was 13%.
With `O=C1N(Cc2nnnn2-c2ccccc2)CCCC12CCN(c1cnc3ccccc3n1)CC2` [Example 122, 2-((1-phenyl-1H-tetrazol-5-yl)methyl)-9-(quinoxalin-2-yl)-2,9-diazaspiro[5.5]undecan-1-one], on hOx2R, the Ki was 725 nM. Besides, the inhibition at 10 µM at hOx1R was 31%.
For `O=C1N(Cc2c[nH]c3ccccc23)CCCC12CCN(c1nccc(-c3ccncc3)n1)CC2` [Example 166, 2-((1H-indol-3-yl)methyl)-9-(4-(pyridin-4-yl)pyrimidin-2-yl)-2,9-diazaspiro[5.5]undecan-1-one], the inhibition constant (Ki) on hOx2R was determined as 156 nM; on hOx1R, 1160 nM.
For the molecule `Cc1nnc(N2CCC3(CCCN(Cc4c[nH]c5ccccc45)C3=O)CC2)c2ccccc12` [Example 157, 2-((1H-indol-3-yl)methyl)-9-(4-methylphthalazin-1-yl)-2,9-diazaspiro[5.5]undecan-1-one], the Ki on hOx2R turned out to be 320 nM; at hOx1R, 1700 nM.
For `O=C1N(Cc2c[nH]c3ccccc23)CCCC12CCN(c1nc3ccccc3o1)CC2` [Example 40, 2-((1H-indol-3-yl)methyl)-9-(benzo[d]oxazol-2-yl)-2,9-diazaspiro[5.5]undecan-1-one] the same measures were 98 nM and 1020 nM.
For `COc1ccc(-c2nnc(CN3CCCC4(CCN(c5cnc6ccccc6n5)CC4)C3=O)o2)cc1` [Example 31, 2-((5-(4-methoxyphenyl)-1,3,4-oxadiazol-2-yl)methyl)-9-(quinoxalin-2-yl)-2,9-diazaspiro[5.5]undecan-1-one] the same measures were 1180 nM and 3690 nM.
In the case of `COc1ccnc(CN2CCCC3(CCN(c4cnc5ccccc5n4)CC3)C2=O)c1OC` [Example 91, 2-((3,4-dimethoxypyridin-2-yl)methyl)-9-(quinoxalin-2-yl)-2,9-diazaspiro[5.5]undecan-1-one], at hOx2R, the inhibition at 10 µM amounted to 38%. Besides, the Ki on hOx1R stood at 2870 nM.
As to `O=C1N(Cc2ccccc2-n2cccn2)CCCC12CCN(c1cnc3ccccc3n1)CC2` [Example 85, 2-(2-(1H-pyrazol-1-yl)benzyl)-9-(quinoxalin-2-yl)-2,9-diazaspiro[5.5]undecan-1-one], the inhibitory constant (Ki) at hOx2R is 822 nM. In addition, at hOx1R, the inhibition at 10 µM was determined as 15%.
Regarding `Cc1oc(-c2cscn2)nc1CN1CCCC2(CCN(c3cnc4ccccc4n3)CC2)C1=O` [Example 114, 2-((5-methyl-2-(thiazol-4-yl)oxazol-4-yl)methyl)-9-(quinoxalin-2-yl)-2,9-diazaspiro[5.5]undecan-1-one], the Ki on hOx2R stood at 831 nM; on hOx1R it was 3790 nM.
For `O=C1N(Cc2nnc3ccccn23)CCCC12CCN(c1cnc3ccccc3n1)CC2` [Example 75, 2-([1,2,4]triazolo[4,3-a]pyridin-3-ylmethyl)-9-(quinoxalin-2-yl)-2,9-diazaspiro[5.5]undecan-1-one], the results for the inhibition at 10 µM at hOx2R and at hOx1R were 35% and 22%, respectively.
For the molecule `O=C1N(Cc2nccc3ccccc23)CCCC12CCN(c1cnc3ccccc3n1)CC2` [Example 93, 2-(isoquinolin-1-ylmethyl)-9-(quinoxalin-2-yl)-2,9-diazaspiro[5.5]undecan-1-one], the Ki on hOx2R amounted to 158 nM; at hOx1R, 1310 nM.
For `O=C1N(Cc2ccnc(Br)c2)CCCC12CCN(c1cnc3ccccc3n1)CC2` [Example 72, 2-((2-bromopyridin-4-yl)methyl)-9-(quinoxalin-2-yl)-2,9-diazaspiro[5.5]undecan-1-one] the same measures were 452 nM and 3100 nM.
The matching figures for `N#Cc1ccc(F)c(CN2CCCC3(CCN(c4cnc5ccccc5n4)CC3)C2=O)c1` [Example 99, 4-fluoro-3-((1-oxo-9-(quinoxalin-2-yl)-2,9-diazaspiro[5.5]undecan-2-yl)methyl)benzonitrile]: 142 nM and 1100 nM.
Consider `O=C1CCCC2(CCN(c3nc4ccc(Cl)cc4o3)CC2)N1Cc1cccc2[nH]ccc12` [Example 139, 1-((1H-indol-4-yl)methyl)-9-(6-chlorobenzo[d]oxazol-2-yl)-1,9-diazaspiro[5.5]undecan-2-one], for which the inhibition constant Ki at hOx2R was 105 nM; on hOx1R, 541 nM.
For `N#Cc1ccccc1CN1CCCC2(CCN(c3cnc4ccccc4n3)CC2)C1=O` [Example 124, 2-((1-oxo-9-(quinoxalin-2-yl)-2,9-diazaspiro[5.5]undecan-2-yl)methyl)benzonitrile] the same measures were 140 nM and 932 nM.
Turning to `Cn1nccc1-c1ccccc1CN1CCCC2(CCN(c3cnc4ccccc4n3)CC2)C1=O` [Example 148, 2-(2-(1-methyl-1H-pyrazol-5-yl)benzyl)-9-(quinoxalin-2-yl)-2,9-diazaspiro[5.5]undecan-1-one], the inhibition at 10 µM was 32% at hOx2R and 30% on hOx1R.
In the case of `Cc1cccc(CN2CCCC3(CCN(c4cnc5ccccc5n4)CC3)C2=O)c1C` [Example 17, 2-(2,3-dimethylbenzyl)-9-(quinoxalin-2-yl)-2,9-diazaspiro[5.5]undecan-1-one], the figures for the inhibition constant Ki at hOx2R and on hOx1R were 247 nM and 1720 nM, respectively.
For `O=C1N(Cc2cccc(-c3ccncc3)c2)CCCC12CCN(c1cnc3ccccc3n1)CC2` [Example 58, 2-(3-(pyridin-4-yl)benzyl)-9-(quinoxalin-2-yl)-2,9-diazaspiro[5.5]undecan-1-one], the inhibitory constant (Ki) on hOx2R was found to be 217 nM; on hOx1R it was 570 nM.
As for `O=C1N(Cc2c[nH]c3ccccc23)CCCC12CCN(c1cc(-n3ccnc3)ncn1)CC2` [Example 158, 9-(6-(1H-imidazo-1-yl)pyrimidin-4-yl)-2-((1H-indol-3-yl)methyl)-2,9-diazaspiro[5.5]undecan-1-one], at hOx2R, the Ki came out at 545 nM. Moreover, the inhibition at 10 µM on hOx1R is 21%.
For `CN1CCOc2c(CN3CCCC4(CCN(c5cnc6ccccc6n5)CC4)C3=O)cccc21` [Example 144, 2-((4-methyl-3,4-dihydro-2H-benzo[b][1,4]oxazin-8-yl)methyl)-9-(quinoxalin-2-yl)-2,9-diazaspiro[5.5]undecan-1-one], the results for the Ki at hOx2R and at hOx1R were 596 nM and 3250 nM, respectively.
`Cc1oc(-c2ccoc2)nc1CN1CCCC2(CCN(c3cnc4ccccc4n3)CC2)C1=O` [Example 116, 2-((2-(furan-3-yl)-5-methyloxazol-4-yl)methyl)-9-(quinoxalin-2-yl)-2,9-diazaspiro[5.5]undecan-1-one]: the inhibition at 10 µM at hOx2R was determined as 53%. Also, the inhibitory constant (Ki) on hOx1R was determined as 3790 nM.
For `COCc1cccc(CN2CCCC3(CCN(c4cnc5ccccc5n4)CC3)C2=O)c1` [Example 80, 2-(3-(methoxymethyl)benzyl)-9-(quinoxalin-2-yl)-2,9-diazaspiro[5.5]undecan-1-one], the figures for the inhibition constant (Ki) at hOx2R and at hOx1R were 96 nM and 2990 nM, respectively.
On to `O=C1N(Cc2ccc(C(F)(F)F)nc2)CCCC12CCN(c1cnc3ccccc3n1)CC2` [Example 90, 9-(quinoxalin-2-yl)-2-((6-(trifluoromethyl)pyridin-3-yl)methyl)-2,9-diazaspiro[5.5]undecan-1-one], for which the inhibition at 10 µM at hOx2R came to 12%; at hOx1R it was 17%.
On to `O=C1N(Cc2cccc3cnccc23)CCCC12CCN(c1cnc3ccccc3n1)CC2` [Example 55, 2-(isoquinolin-5-ylmethyl)-9-(quinoxalin-2-yl)-2,9-diazaspiro[5.5]undecan-1-one], for which the figures for the Ki on hOx2R and at hOx1R were 151 nM and 932 nM, respectively.
With `COc1cc(CN2CCCC3(CCN(c4cnc5ccccc5n4)CC3)C2=O)ccn1` [Example 45, 2-((2-methoxypyridin-4-yl)methyl)-9-(quinoxalin-2-yl)-2,9-diazaspiro[5.5]undecan-1-one], the inhibition at 10 µM on hOx2R is 43%; on hOx1R, 19%.
As to `Cc1ccc2nc(N3CCC4(CCCN(Cc5c[nH]c6ccccc56)C4=O)CC3)sc2c1` [Example 153, 2-((1H-indol-3-yl)methyl)-9-(6-methylbenzo[d]thiazol-2-yl)-2,9-diazaspiro[5.5]undecan-1-one], the inhibition at 10 µM on hOx2R amounted to 35%; on hOx1R it was 22%.

Values taken from patent US8530648B2, “Diaza-spiro[5.5]undecanes” (Novartis AG, priority 2009, dated 2013).
